Laboratory results taken from ChEMBL document CHEMBL1134261, “Synthesis of anticonvulsive AMPA antagonists: 4-oxo-10-substituted-imidaz” (Bioorg Med Chem Lett, 2001).

Experiments:
Glutamate NMDA receptor = assay: Displacement of [3H]DCKA from glycine NMDA receptor of rat cortical membranes; format: cell membranes, Membrane
[1] = target: Glutamate receptor ionotropic, AMPA (Rattus norvegicus, UniProt P19490+P19491+P19492+P19493); assay: Displacement of [3H]AMPA from Ionotropic glutamate receptor AMPA of rat cortical membranes; format: cell membranes, Membrane
Mus musculus [2] = assay: In vivo effective dose required to protect 6 male CD1 mice against tonic convulsions following ip administration for a pretreatment time of 30 min; format: functional
Mus musculus [3] = assay: In vivo effective dose required to protect 6 male CD1 mice against tonic convulsions following iv administration for a pretreatment time of 5 min; format: functional
Mus musculus [4] = assay: In vivo effective dose required to protect 6 male CD1 mice against tonic convulsions following iv administration for a pretreatment time of 60 min; format: functional
Xenopus sp. = species: Xenopus sp.; assay: Inhibition of currents generated by 50 uM kainate in Xenopus oocytes injected with rat brain mRNA; format: functional, organism-based, frog
Mus musculus [5] = assay: In vivo effective dose required to protect 6 male CD1 mice against tonic convulsions following iv administration for a pretreatment time of 30 min; format: functional

Row | IC50 (Xenopus sp.) | Compound | IC50 (Glutamate NMDA receptor) | IC50 [1] | ED50 (Mus musculus [2]) | ED50 (Mus musculus [3]) | ED50 (Mus musculus [4]) | ED50 (Mus musculus [5])
1 | 0.022 µM | CC1(CCCCC(=O)O)c2ccccc2-c2nc(O)c3nc(C(=O)O)cn3c21 (configuration not stated) | 0.134 µM | 0.242 µM | 10 mg/kg | 9.5 mg/kg | 15 mg/kg | –
2 | – | O=C(O)c1cn2c3c(nc(O)c2n1)-c1ccccc1C3N1CC=CC1=O (configuration not stated) | 0.184 µM | 0.023 µM | 20 mg/kg | 7.7 mg/kg | – | –
3 | 0.029 µM | O=C(O)c1cn2c3c(nc(O)c2n1)-c1ccccc1C3 | – | – | – | – | – | –
4 | 0.13 µM | NC1c2ccccc2-c2nc(O)c3nc(C(=O)O)cn3c21 (configuration not stated) | 0.158 µM | 0.093 µM | 19 mg/kg | 7 mg/kg | > 40 mg/kg | 25 mg/kg
5 | 1.8 µM | Oc1nc2c(n3ccnc13)Cc1ccccc1-2 | – | – | – | – | – | –
6 | 0.006 µM | O=C(O)CCC(=O)NC1c2ccccc2-c2nc(O)c3nc(C(=O)O)cn3c21 (configuration not stated) | 0.23 µM | 0.035 µM | 2.5 mg/kg | 1.7 mg/kg | 3 mg/kg | 1.7 mg/kg
7 | 0.031 µM | O=c1[nH]c2cc(C(F)(F)F)c(N3CCOCC3)cc2n(CP(=O)(O)O)c1=O [FANAPANEL] | > 10 µM | – | 36 mg/kg | 36 mg/kg | – | –
8 | 0.233 µM | O=C(O)[C@@H]1C[C@H]2C[C@@H](CCc3nn[nH]n3)CC[C@H]2CN1 [TEZAMPANEL ANHYDROUS] | – | – | – | – | – | –
9 | 0.26 µM | O=c1[nH]c2cc(-n3ccnc3)c([N+](=O)[O-])cc2[nH]c1=O [YM-90K] | – | – | – | 6.2 mg/kg | 40 mg/kg | 24 mg/kg

Row | Compound | IC50 (Xenopus sp.) | IC50 (Glutamate NMDA receptor) | IC50 [1] | ED50 (Mus musculus [2]) | ED50 (Mus musculus [3]) | ED50 (Mus musculus [4]) | ED50 (Mus musculus [5])
10 | O=C(O)c1cn2c3c(nc(O)c2n1)-c1ccccc1C3=O | 0.32 µM | 0.422 µM | 0.58 µM | – | – | – | –
11 | O=C(Nc1ccccc1)NC1c2ccccc2-c2nc(O)c3nc(C(=O)O)cn3c21 (configuration not stated) | 0.03 µM | 0.018 µM | 0.159 µM | 80 mg/kg | – | – | –
12 | O=C(O)c1cn2c3c(nc(O)c2n1)-c1ccccc1C3n1cccc1 (configuration not stated) | 0.06 µM | 0.032 µM | 0.055 µM | 26 mg/kg | 10 mg/kg | 17 mg/kg | 15 mg/kg
13 | O=Nc1c2n3cc(C(=O)O)[nH]c3c(O)nc-2c2ccccc12 | 0.13 µM | 0.593 µM | 0.167 µM | > 80 mg/kg | – | – | –
14 | O=C(O)CCCO/N=C1\c2ccccc2-c2nc(O)c3nc(C(=O)O)cn3c21 | 0.005 µM | 1.4 µM | 0.044 µM | > 80 mg/kg | – | – | –
